# Experimental data as given in patent US20170128467A1, “ANTIMICROBIAL PHARMACEUTICAL COMPOSITIONS WITH MULTIPLE DRUG RESISTANCE INHIBITING PROPERTIES” (priority 2014, published 2017).
# Columns and labels:
# [1] = system: S. cerevisiae W303-1A and PGAL-PDR5, PGAL-SNQ2, PGAL-YOR1 strains; experiment: Survival assay (CFU) of yeast treated with C12TPP or SkQ1; format: cell-based, Saccharomyces cerevisiae; conditions: galactose-grown cells, 3 hours treatment
# From the text: FIG. 1A show the chemical structure of dodecyltriphenylphosphonium C12TPP and its plastoquinone derivative (SkQ1) used in this study.
# In this example, we used W303-1A S. cerevisiae strains and its derivatives: AD1-8 with deletions of eight MDR genes [W303-1A, yor1::hisG, snq2::hisG, pdr5:shisG, pdr10::hisG, pdr11::hisG, ycf1::hisG, pdr3::hisG, pdr15::hisG][4]□, PGAL-PDR5 [W303-1A HIS3::PGAL-PDR5], PGAL-SNQ2 [W303-1A HIS3::PGAL-SNQ2], and […] [W303-1AHIS3::PGAL-YOR1](this study). Cells were grown in YPD medium (2% glucose, 1% bactopeptone, 1% yeast extract), or in YPGal (2% galactose, 1% bactopepton, 1% yeast extract). For genetic screening and maintenance of strains with conditionally expressed genes synthetic drop-out media YNB-Leu or YNB-His were used according to Sherman 2000 [5]. The growth rates were measured by increase of light scattering (λ=550 nm) in liquid yeast culture.
# Exponentially grown cells were taken and treated with indicated amounts of C12TPP or SKQ1 for 3 hours. Then cell suspensions were plated on solid YPD medium and incubated for 48 hours, the number of formed colonies were counted. 100% refers to the number of colony forming units (CFU) in yeast suspension at the beginning of experiment.
# [2] = molecular target: T1, MDR pumps (Pdr5p) of yeast cells (Saccharomyces cerevisiae, UniProt P33302); format: cell-based; conditions: 2 μM compound
# T1 construct: We measured the efflux of R6G from intact yeast cells using fluorometric method; endogenous in cells; host or cells: S. cerevisiae W303-1A (WT); AD1-8 as MDR-negative control
# T1 sequence (P33302 whole entry): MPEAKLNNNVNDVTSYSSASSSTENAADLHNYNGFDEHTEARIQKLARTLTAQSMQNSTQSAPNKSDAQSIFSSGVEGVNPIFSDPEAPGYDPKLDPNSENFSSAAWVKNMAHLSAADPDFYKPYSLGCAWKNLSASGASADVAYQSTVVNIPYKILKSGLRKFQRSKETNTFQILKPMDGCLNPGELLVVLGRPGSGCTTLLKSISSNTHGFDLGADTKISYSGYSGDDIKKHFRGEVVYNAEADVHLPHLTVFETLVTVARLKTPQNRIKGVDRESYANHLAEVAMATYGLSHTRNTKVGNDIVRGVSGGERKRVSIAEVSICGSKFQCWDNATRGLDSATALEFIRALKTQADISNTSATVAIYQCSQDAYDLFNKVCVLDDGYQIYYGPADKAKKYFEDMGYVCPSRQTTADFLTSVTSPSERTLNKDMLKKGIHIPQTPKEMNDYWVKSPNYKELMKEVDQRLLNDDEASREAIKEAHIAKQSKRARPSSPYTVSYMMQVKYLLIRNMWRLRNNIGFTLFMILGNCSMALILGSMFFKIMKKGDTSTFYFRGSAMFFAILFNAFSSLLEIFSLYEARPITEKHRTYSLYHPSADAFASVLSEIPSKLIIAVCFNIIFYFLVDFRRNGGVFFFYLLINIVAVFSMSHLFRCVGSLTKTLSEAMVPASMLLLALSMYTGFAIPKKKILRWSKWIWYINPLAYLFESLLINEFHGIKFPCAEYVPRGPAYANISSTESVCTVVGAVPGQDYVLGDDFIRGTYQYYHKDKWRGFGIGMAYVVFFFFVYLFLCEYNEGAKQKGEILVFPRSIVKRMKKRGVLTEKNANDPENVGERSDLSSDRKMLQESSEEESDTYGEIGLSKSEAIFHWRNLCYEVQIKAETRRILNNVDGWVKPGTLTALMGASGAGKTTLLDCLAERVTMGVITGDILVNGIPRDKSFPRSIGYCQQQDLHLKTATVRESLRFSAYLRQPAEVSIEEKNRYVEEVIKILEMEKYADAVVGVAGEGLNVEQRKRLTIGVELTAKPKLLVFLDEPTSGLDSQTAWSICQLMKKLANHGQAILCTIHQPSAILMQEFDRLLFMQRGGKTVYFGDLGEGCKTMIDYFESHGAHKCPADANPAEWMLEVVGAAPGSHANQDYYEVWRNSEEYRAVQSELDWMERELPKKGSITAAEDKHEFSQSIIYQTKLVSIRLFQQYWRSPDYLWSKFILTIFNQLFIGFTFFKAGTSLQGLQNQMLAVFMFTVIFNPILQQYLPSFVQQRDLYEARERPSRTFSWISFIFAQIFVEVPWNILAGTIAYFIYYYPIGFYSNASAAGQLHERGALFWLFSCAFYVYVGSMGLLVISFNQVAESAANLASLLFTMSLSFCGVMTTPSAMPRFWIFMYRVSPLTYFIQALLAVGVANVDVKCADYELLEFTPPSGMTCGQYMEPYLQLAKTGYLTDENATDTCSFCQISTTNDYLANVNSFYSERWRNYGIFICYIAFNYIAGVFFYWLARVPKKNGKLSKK
# Method: The ordinate corresponds to the ratio of slopes in a and b.
# To measure the relative rate of rhodamine 6G efflux we used fluorometric assay implemented by Kolaczkowsky et al., with few modifications. Cells were grown overnight in 40 ml in liquid YPD to density of 0.5-1*10^7 cells/ml, washed twice with cold sterile water and resuspended in 10 ml phosphate buffer saline supplemented with 5 mM 2-deoxyglucose and 2.5 mM 2,4-dinitrophenol. Cell suspension was incubated for 45 minutes on a rotatory shaker, then the inhibitors were removed by two cycles of centrifugation/resuspension in cold water. The energy deprived cells were resuspended in 10 ml of PBS and then stained with R6G (10 μM) for 30 minutes. Then cell suspension was pelleted, resuspended in equal volume of PBS and stored on ice for 1-5 hours. The measurements of efflux were performed with FluoroMax-3 fluorometer system with exication wavelength set to 480 nm, and emission wavelength set to 560 nm. The R6G efflux was initiated by addition of 0.1% glucose, cell density in fluorometric cuvette was 10^6 cells/ml.
# Bacillus subtilis cells = experiment: Growth inhibition assay in liquid medium, B. subtilis; format: cell-based; conditions: for antimicrobial activity (growth inhibition): gram-positive
# Method: (§1) Growing in the liquid medium method was selected as the method to test antibacterial activity of SkQ1. Overnight bacterial cells cultures were diluted in fresh LB media. Bacterial cell culture (5×10^6 cells/ml) were inoculated 200 μl into 96-well plates (Eppendorf, Eppendorf AG, Hamburg, Germany) and SkQ1 or CnTPP were added to reach various final concentrations in the range from 0.5 to 200 μM. Cells were left to grow for 21 hours at 37° C. Optical density at 600 nm was measured using an AnthosZenyth 3100 multimode reader (Anthos Labtec, Austria) during incubation.
# (§2) We selected Ecsherishia coli cells as a Gram-negative model organism and Bacillus subtilis cells as a Gram-positive model organism. SkQ1 was selected as a model compound of formula 1 with antioxidant moiety. To select a proper concentration of a compound of formula 1 we performed growth inhibition assays for several SkQ1 concentrations (see FIGS. 8 A and B). It can be concluded from the results of this experiment that 1 μM SkQ1 is the minimal inhibitory concentration (MIC) for B. subtilis cells.
# E. coli = experiment: Growth inhibition assay in liquid medium, E. coli; format: cell-based, Escherichia coli
# Method: as §1, §2
# ΔTolC (JW5503) = experiment: Growth inhibition assay, TolC deletion mutant; format: cell-based, Escherichia coli K-12; conditions: for IMPOSSIBILITY OF GROWTH: ΔTolC
# Method: as §1
# (§3) In this experiment we have tested whether To1C-dependent transporter is responsible for resistance of E. coli's cells to SkQ1. In the experiment we used single-gene knockout mutants from Keio collection [Baba T., et al., (2006)]. Construction of Escherichia coli K-12 in-frame, single-gene knockout mutants: the Keio collection. Mol. Syst. Biol. 2, 2006.0008.]. […] We used other knockout mutants of genes encoding proteins of transporters that require To1C for their function. […] In contrast, deletion of genes acrA or acrB dramatically changed the sensitivity of E. coli's cells to SkQ1.
# Table 1. Results of growth inhibition assay for deletion mutants of genes encoding To1C-required efflux pumps proteins. Deletion strains JW5503 (devoid of the to1C gene), JW0452 (devoid of the acrA gene), JW0451 (devoid of the acrB gene), JW2454 (devoid of the acrD gene), JW3233 (devoid of the acrE gene), JW3234 (devoid of the acrF gene), JW5338 (devoid of the mdtA gene), JW2060 (devoid of the mdtB gene), JW2061 (devoid of the mdtC gene), JW3481 (devoid of the mdtE gene), and JW3482 (devoid of the mdtF gene) have been described in Baba T., et al., (2006). Construction of Escherichia coli K-12 in-frame, single-gene knockout mutants: the Keio collection. Mol. Syst. Biol. 2, 2006.0008.
# ΔAcrA (JW0452) = experiment: Growth inhibition assay, AcrA deletion mutant; format: cell-based, Escherichia coli K-12
# Method: as §1, §3
# (§4) Table 1. Results of growth inhibition assay for deletion mutants of genes encoding To1C-required efflux pumps proteins. […]
# ΔAcrB (JW0451) = experiment: Growth inhibition assay, AcrB deletion mutant; format: cell-based, Escherichia coli K-12
# Method: as §1, §3, §4
# AcrAB-To1C transporter = molecular target: T2, AcrAB-To1C transporter (Escherichia coli, UniProt P31224); experiment: Ethidium bromide accumulation experiment; format: cell-based; conditions: SkQ1 50 μM; ethidium bromide 20 μg/ml
# T2 construct: endogenous in cells
# T2 sequence (P0AE06 25-397): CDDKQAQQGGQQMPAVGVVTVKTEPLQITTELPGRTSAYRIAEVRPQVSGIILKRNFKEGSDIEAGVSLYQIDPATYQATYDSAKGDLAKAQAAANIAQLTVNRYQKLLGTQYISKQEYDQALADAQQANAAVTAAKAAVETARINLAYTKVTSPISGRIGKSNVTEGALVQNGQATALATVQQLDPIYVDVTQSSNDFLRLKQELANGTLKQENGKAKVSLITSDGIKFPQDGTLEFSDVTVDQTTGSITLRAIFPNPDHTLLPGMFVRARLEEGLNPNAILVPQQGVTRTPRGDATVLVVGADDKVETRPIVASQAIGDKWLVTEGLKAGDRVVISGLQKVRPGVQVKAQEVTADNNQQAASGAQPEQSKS
# T2 sequence (P02930 23-493, further chain): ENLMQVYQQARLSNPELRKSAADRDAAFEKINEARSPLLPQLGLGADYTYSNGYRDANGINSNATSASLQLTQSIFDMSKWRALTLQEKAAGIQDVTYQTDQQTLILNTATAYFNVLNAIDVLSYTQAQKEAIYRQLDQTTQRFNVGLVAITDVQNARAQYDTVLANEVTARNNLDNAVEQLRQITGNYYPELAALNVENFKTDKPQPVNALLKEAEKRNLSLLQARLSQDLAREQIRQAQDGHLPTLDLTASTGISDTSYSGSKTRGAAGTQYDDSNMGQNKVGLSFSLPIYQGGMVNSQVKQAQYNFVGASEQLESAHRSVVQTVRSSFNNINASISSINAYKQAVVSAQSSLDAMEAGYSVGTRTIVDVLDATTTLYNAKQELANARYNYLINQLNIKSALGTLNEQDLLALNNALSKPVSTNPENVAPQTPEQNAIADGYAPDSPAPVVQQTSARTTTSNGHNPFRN
# T2 sequence (P31224 whole entry): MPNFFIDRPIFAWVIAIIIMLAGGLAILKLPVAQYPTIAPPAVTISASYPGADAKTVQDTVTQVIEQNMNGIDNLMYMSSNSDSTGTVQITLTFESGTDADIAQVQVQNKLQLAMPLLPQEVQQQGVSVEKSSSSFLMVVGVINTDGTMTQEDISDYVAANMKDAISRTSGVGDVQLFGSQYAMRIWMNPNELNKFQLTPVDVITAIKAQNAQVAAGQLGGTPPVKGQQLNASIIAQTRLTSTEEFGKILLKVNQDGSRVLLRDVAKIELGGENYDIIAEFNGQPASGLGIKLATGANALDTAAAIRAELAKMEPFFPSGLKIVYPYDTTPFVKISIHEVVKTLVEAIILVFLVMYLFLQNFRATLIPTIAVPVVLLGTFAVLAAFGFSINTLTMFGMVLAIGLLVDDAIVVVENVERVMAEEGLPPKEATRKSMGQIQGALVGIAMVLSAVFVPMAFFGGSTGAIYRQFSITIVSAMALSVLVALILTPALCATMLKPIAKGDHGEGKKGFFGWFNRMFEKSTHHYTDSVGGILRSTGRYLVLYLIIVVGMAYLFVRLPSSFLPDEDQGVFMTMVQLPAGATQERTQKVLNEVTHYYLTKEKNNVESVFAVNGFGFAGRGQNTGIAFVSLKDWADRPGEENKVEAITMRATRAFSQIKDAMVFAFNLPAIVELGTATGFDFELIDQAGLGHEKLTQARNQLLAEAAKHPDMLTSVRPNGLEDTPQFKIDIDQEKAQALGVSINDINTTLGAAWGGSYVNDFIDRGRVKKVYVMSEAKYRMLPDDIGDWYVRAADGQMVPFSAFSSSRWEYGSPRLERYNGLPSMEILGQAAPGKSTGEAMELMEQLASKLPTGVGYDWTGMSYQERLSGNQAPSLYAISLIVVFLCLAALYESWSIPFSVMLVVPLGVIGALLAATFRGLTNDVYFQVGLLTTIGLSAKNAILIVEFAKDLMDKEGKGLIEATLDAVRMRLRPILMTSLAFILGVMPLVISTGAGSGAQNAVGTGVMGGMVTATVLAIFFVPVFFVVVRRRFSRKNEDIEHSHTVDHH
# Method: For emulation of cell membrane leakage, bacterial cells were resuspended in deionized water. Ethidium bromide was added (20 μg/ml) and the change of fluorescence intensity was recorded on Fluorat-02-Panorama. For detecting of the accumulation of ethidium bromide, SkQ1 was added to a concentration of 50 μM.
# To confirm whether AcrAB-To1C is the appropriate transporter, we used a test based on the measurement of ethidium bromide leakage through intact bacterial membranes. […] Bacterial cells were prepared and resuspended in PBS. For emulation of cell membrane leakage bacterial cells were resuspended in deionized water (Milli-Q water purification system, EMD Millipore, Billerica, Mass.). Ethidium bromide was added (20 μg/ml) and the change of fluorescence intensity was recorded on Fluorat-02-Panorama (Lumex Instruments, Russia) spectrofluorometer. For increasing the accumulation of ethidium bromide, SkQ1 was added to reach a concentration of 50 μM. […] We observed ethidium bromide accumulation when ethidium bromide concentration was 40-times less than MIC for E. coli cells that only can be the result of collateral action of SkQ1 and ethidium bromide as substrates for AcrAB-To1C transporter.
smiles,measurement,setting,value
"CC1=C(C)C(=O)C(CCCCCCCCCC[P+](c2ccccc2)(c2ccccc2)c2ccccc2)=CC1=O [SkQ1, plastoquinonildecyltriphenylphosphonium]",resistance of cells (survival) under overexpression of MDR pump genes,[1],did not observe any effect of MDR overexpression
same,inhibition of glucose-induced R6G efflux from yeast cells,[2],much more efficient
same,inhibition of glucose-induced R6G efflux from yeast cells pretreated with NaN3,[2]; cells pretreated with 10 mM NaN3,inhibits glucose-induced R6G efflux
same,MIC,"Bacillus subtilis cells; Bacillus subtilis, LB media, 37° C., read-out: minimal inhibitory concentration (MIC)",1 µM
same,antimicrobial activity (growth inhibition),Bacillus subtilis cells,strong antimicrobial activity
same,growth inhibition at 1 μM,E. coli; 1 μM SkQ1,did not inhibit significantly growth
same,MIC,"E. coli; Escherichia coli, LB media, 37° C., read-out: minimal inhibitory concentration (MIC)",50 µM
same,antimicrobial activity (growth inhibition),E. coli; gram-negative,mild antimicrobial activity
same,MBC,"ΔTolC (JW5503); Escherichia coli, read-out: minimal bactericidal concentration",~2 µM
same,IMPOSSIBILITY OF GROWTH,ΔTolC (JW5503); 5 μM,YES
same,IMPOSSIBILITY OF GROWTH,ΔTolC (JW5503); 30 μM,YES
same,IMPOSSIBILITY OF GROWTH,ΔAcrA (JW0452); 5 μM,YES
same,IMPOSSIBILITY OF GROWTH,ΔAcrA (JW0452); 30 μM,YES
same,IMPOSSIBILITY OF GROWTH,ΔAcrB (JW0451); 5 μM,YES
same,IMPOSSIBILITY OF GROWTH,ΔAcrB (JW0451); 30 μM,YES
same,ethidium bromide leakage through bacterial membranes (accumulation),AcrAB-To1C transporter,comparable to ethidium bromide leakage during osmotic shock
same,substrate of AcrAB-To1C transporter,AcrAB-To1C transporter,is a substrate for AcrAB-To1C transporter
CC1=C(C)C(=O)C(CCCCCCCCCC[P+](c2ccccc2)(c2ccccc2)c2ccccc2)=C(C)C1=O [SkQ3],antimicrobial activity (growth inhibition),Bacillus subtilis cells,have antimicrobial activity
CC1=CC(=O)C(CCCCCCCCCC[P+](c2ccccc2)(c2ccccc2)c2ccccc2)=CC1=O [SkQT-para],antimicrobial activity (growth inhibition),Bacillus subtilis cells,have antimicrobial activity
"CCCCCCCC[P+](c1ccccc1)(c1ccccc1)c1ccccc1 [C8TPP, octyltriphenylphosphonium]",antimicrobial activity (growth inhibition),Bacillus subtilis cells,have antimicrobial activity
same,antimicrobial activity (growth inhibition),ΔTolC (JW5503); To1C-deletion mutant,have antimicrobial activity
CC1=C(C)C(=O)C(CCCCC[P+](c2ccccc2)(c2ccccc2)c2ccccc2)=CC1=O [SkQ5],antimicrobial activity (growth inhibition),Bacillus subtilis cells,have antimicrobial activity
